The source of these data is ChEMBL document CHEMBL1201862, “PubChem BioAssay data set” (2004).

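A five-concentration, 48-hour dose response in 96-well plates underlies each endpoint, interpolated linearly between surrounding concentrations. GI50 is the concentration that inhibits growth by half.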 Calls of active or inactive are those of the source. No stated cut-off is given here; in the data, active = GI50 up to about 1.1 µM and inactive = higher. A value given as a limit tells only on which side of the number the result lay.

Common to all, as to test: growth of human tumour cells (NCI), 48 h
The subject of assay [1] is TK-10.
In assay [2] the test system is HOP-62.
Assay [3] relates to SF-539.
Assay [4] concerns SK-OV-3.
Assay [5] has as its system NCI-H522.
The subject of assay [6] is HOP-92.
The test system of assay [7] is K562.
Assay [8] has as its system RPMI-8226.
Assay [9] concerns COLO 205.
The test system of assay [10] is UACC-62.
The subject of assay [11] is MCF7.
Assay [12] relates to HT-29.
Assay [13] concerns A549.
Assay [14] has as its system Hs-578T.
Assay [15] has as its system HCT-116.
For assay [16], the system named is LOX IMVI.
Assay [17] deals with 786-0.
The test system of assay [18] is DU-145.
Assay [19] has as its system SF-268.
Assay [20] concerns SK-MEL-5.

`N#Cc1c(-c2ccc(Cl)cc2)c(-c2ccc(Cl)cc2)nn(CCOC(=O)CCC(=O)O)c1=O`: the GI50 in assay [1] is 4.11 µM (inactive); in assay [2], 0.64 µM (active); in assay [3], 0.421 µM (active); in [4], 0.778 µM (active); in assay [5] it was 0.51 µM (active); in assay [6], < 0.01 µM (active). Also, the GI50 is 0.344 µM (active) in assay [7]; 0.76 µM (active) in [8]; 0.582 µM (active) in [9]; 0.26 µM (active) in [10]; 0.165 µM (active) in assay [11]; 0.796 µM (active) in assay [12]. The GI50 in [13] was 1.31 µM (inactive); in [14], 1.38 µM (inactive); in assay [15], 0.6 µM (active); in assay [16], 0.667 µM (active); in assay [17], 0.755 µM (active); in [18], 0.615 µM (active). In addition, the GI50 is 0.809 µM (active) in assay [19] and 0.166 µM (active) in [20].
Take `CC(C)COC(=O)OC(=O)c1ccc(N(C)Cc2cnc3nc(N)nc(N)c3n2)cc1`: the GI50 in [1] was > 88.1 µM (inactive); in assay [2], 59.7 µM (inactive); in [3], 10.8 µM (inactive); in assay [4], > 100 µM (inactive); in assay [5], 23.1 µM (inactive); in [6], 47.5 µM (inactive). Besides, the GI50 in assay [7] was 0.466 µM (active); in [8] it was > 80.9 µM (inactive); in assay [9] it was > 75.3 µM (inactive); in assay [10], 6.53 µM (inactive); in assay [11], 6.35 µM (inactive); in assay [12], 26.9 µM (inactive). Moreover, the GI50 in assay [13] is 5.61 µM (inactive); in [14], > 100 µM (inactive); in assay [15] it was 2.43 µM (inactive); in assay [16], 1.41 µM (inactive); in assay [17], 5.37 µM (inactive); in assay [18], 53.7 µM (inactive). Further, the GI50 in assay [19] was 9.89 µM (inactive); in assay [20], 5.22 µM (inactive).
`CCOC(=O)/C(=C\c1ccc(N(C)C)cc1)S(=O)(=O)C(F)(F)C(F)(F)C(F)(F)C(F)(F)F`: the GI50 is 13 µM (inactive) in assay [1]; > 100 µM (inactive) in assay [2]; > 100 µM (inactive) in assay [3]; > 100 µM (inactive) in [4]; > 100 µM (inactive) in [5]; > 100 µM (inactive) in [6]. In addition, the GI50 in assay [7], in assay [8], in assay [9], in assay [10], in [11] and in [12] was > 100 µM (inactive) each time. The GI50 in assay [13], in [14], in assay [15], in assay [16], in assay [17] and in assay [18] was > 100 µM (inactive) throughout. The GI50 in [19] and in [20] was > 100 µM (inactive) in each case.
In the case of `S=C1SCN(Cc2ccco2)CN1c1ccc(Br)cc1`, the GI50 was 22.8 µM (inactive) in assay [1]; 23.8 µM (inactive) in assay [2]; 14.5 µM (inactive) in [3]; 25.1 µM (inactive) in assay [4]; 10.3 µM (inactive) in assay [5]; 20 µM (inactive) in assay [6]. Besides, the GI50 is 2.45 µM (inactive) in assay [7]; 15.4 µM (inactive) in [8]; 15.8 µM (inactive) in [9]; 2.94 µM (inactive) in [10]; 14.6 µM (inactive) in assay [11]; 13.8 µM (inactive) in assay [12]. Moreover, the GI50 in [13] is 18.5 µM (inactive); in assay [14], 24.8 µM (inactive); in [15] it was 12.2 µM (inactive); in assay [16] it was 1.72 µM (inactive); in assay [17] it was 17.1 µM (inactive); in [18] it was 26.2 µM (inactive). Moreover, the GI50 is 13.2 µM (inactive) in [19] and 12.1 µM (inactive) in assay [20].
As to `CC(CN(C)C)C(C#N)(c1ccccc1)c1ccccc1` (stereo not given), the GI50 in assay [1] was > 100 µM (inactive); in assay [2], > 100 µM (inactive); in assay [3] it was > 100 µM (inactive); in assay [4] it was > 100 µM (inactive); in [5], > 100 µM (inactive); in [6], 43.4 µM (inactive). Besides, the GI50 was 65.2 µM (inactive) in assay [7]; 78.2 µM (inactive) in assay [8]; 82.6 µM (inactive) in assay [9]; > 100 µM (inactive) in assay [10]; > 100 µM (inactive) in [11]; 63.7 µM (inactive) in assay [12]. Moreover, the GI50 in assay [13], in assay [14], in [15], in assay [16], in assay [17] and in assay [18] was > 100 µM (inactive) throughout. Further, the GI50 in assay [19] and in assay [20] was > 100 µM (inactive) throughout.
Consider `CC1=C(Cl)C[C@@H](/C(C)=C\Cl)O[C@@]1(O)C(Br)Br`, for which the GI50 in assay [1] was 29 µM (inactive); in assay [2] it was > 100 µM (inactive); in [3], 33.8 µM (inactive); in assay [4], > 100 µM (inactive); in [5] it was 18.9 µM (inactive); in assay [6], 25.2 µM (inactive). The GI50 was 17.3 µM (inactive) in assay [7]; 18.2 µM (inactive) in [8]; 29.5 µM (inactive) in [9]; 45.2 µM (inactive) in [10]; 18.2 µM (inactive) in [11]; 32.1 µM (inactive) in [12]. The GI50 in assay [13] is 22 µM (inactive); in assay [14], 45.5 µM (inactive); in [15], 30.4 µM (inactive); in assay [16] it was 31.7 µM (inactive); in assay [17], 33.7 µM (inactive); in assay [18], 19.9 µM (inactive). Further, the GI50 was 32.7 µM (inactive) in assay [19] and 24.9 µM (inactive) in assay [20].
As for `COc1ccc(C(O)CC(O)(C(F)(F)F)C(F)(F)F)cc1` (stereo not given), the GI50 is 44.7 µM (inactive) in [1]; 26.4 µM (inactive) in [2]; 21.7 µM (inactive) in [3]; 54.1 µM (inactive) in [4]; 32.1 µM (inactive) in assay [5]; 15.8 µM (inactive) in [6]. In addition, the GI50 is 25.6 µM (inactive) in assay [7]; 14.4 µM (inactive) in assay [8]; 19.1 µM (inactive) in assay [9]; 22.8 µM (inactive) in assay [10]; 61.4 µM (inactive) in assay [11]; 28.8 µM (inactive) in assay [12]. For the same molecule, the GI50 in assay [13] is 21.5 µM (inactive); in assay [14], 16.3 µM (inactive); in [15] it was 16.6 µM (inactive); in [16], 18.2 µM (inactive); in [17], 32.4 µM (inactive); in [18], 47 µM (inactive). Moreover, the GI50 in [19] is 39.9 µM (inactive); in assay [20], 21.2 µM (inactive).
